Target: T1, human recombinant OX2 (hOX2) receptor expressed in CHO cells (Homo sapiens, UniProt O43614)
T1 construct: host or cells: CHO cells (hOX2-CHO)
T1 sequence (O43614 1-444): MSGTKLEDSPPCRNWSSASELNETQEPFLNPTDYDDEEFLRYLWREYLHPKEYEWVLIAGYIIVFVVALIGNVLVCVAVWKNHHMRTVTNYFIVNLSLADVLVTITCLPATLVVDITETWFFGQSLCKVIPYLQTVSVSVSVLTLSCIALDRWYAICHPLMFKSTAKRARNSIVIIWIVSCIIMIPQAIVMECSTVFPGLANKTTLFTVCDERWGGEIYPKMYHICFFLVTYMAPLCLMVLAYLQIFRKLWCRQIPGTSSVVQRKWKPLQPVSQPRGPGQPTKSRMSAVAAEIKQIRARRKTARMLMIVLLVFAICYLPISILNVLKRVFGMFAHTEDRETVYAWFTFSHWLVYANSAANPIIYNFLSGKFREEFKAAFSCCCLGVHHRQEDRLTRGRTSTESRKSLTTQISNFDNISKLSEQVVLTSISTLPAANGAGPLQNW
Test: IP-1 accumulation assay (IP-One HTRF) in hOX2-CHO cells
Format: cell-based
Conditions: 60 min at 37° C., 11 points CRC, response as % of maximal OX-A response
Procedure: The accumulation of Inositol-1 Monophosphate (IP-1) was measured using IP-One HTRF® Terbium cryptate based assay (Cisbio) in human recombinant OX1 (hOX1) and at OX2 (hOX2) receptors expressed in CHO cells (DiscoverX) according to the manufacturer's instructions for cells tested in suspension.
hOX1-CHO and hOX2-CHO cells were seeded into white 384-well plates at a density of 20,000 cells/well in Hank's Balanced Salt Solution (HBSS) containing 20 mM HEPES pH 7.4, 50 mM, LiCl and 0.1% and Bovine Serum Albumin (BSA).
Compounds of the present disclosure were tested in a 11 points concentration response curve (CRC) serially diluted in neat DMSO at 200 fold concentrations and added by Echo acoustic liquid handling (Labcyte) to the cells (0.5% DMSO final in the assay). After 60 min of incubation at 37° C. detection reagents, IP1-d2 tracer and anti-IP1-cryptate were diluted in lysis buffer according to the manufacturer's descriptions and added to the cells.
Following 60 min incubation at room temperature, time-resolved fluorescence (HTRF) was measured at 615 nm and 665 nm by Envision Multilabel reader (Perkin Elmer) and the HTRF ratio (A665/A615x104) was calculated.
The IP-1 accumulation response was expressed as percentage of the maximal OX-A response.
Curve fitting and EC50 estimations were carried out using a four-parameter logistic model using XLfit Software. Mean data of EC50 are calculated from at least two independent experiments performed in duplicates.
In the Tables, below Category A corresponds to compounds displaying an […]<100 nM, Category B between 100 nM and 1,000 nM, Category C between 1,000 nM and 10,000 nM and Category D above 10,000 nM.

Row | EC50 | Compound
1 | 1000 to 10000 nM | CN(C)S(=O)(=O)NCC(CO[C@H]1CC[C@@H](c2ccccc2)CC1)n1ccccc1=O (relative stereo) [Example 1f, 1-{1-[(Dimethylsulfamoyl)amino]-3-{[(CIS)-4-phenylcyclohexyl]oxy}propan-2-yl}-1,2-dihydropyridin-2-one]
2 | < 100 nM | Cc1cc(C(CNS(=O)(=O)CF)CO[C@H]2CC[C@@H](c3cc(F)cc(F)c3)CC2)c(=O)n(C)c1 (relative stereo) [Example 5t, N-[2-(1,5-dimethyl-2-oxo-1,2-dihydropyridin-3-yl)-3-{[(CIS)-4-(3,5-difluorophenyl)cyclohexyl]oxy}propyl]-1-fluoromethanesulfonamide]
3 | 1000 to 10000 nM | CS(=O)(=O)NCC(CO[C@H]1CC[C@@H](c2ccccc2)CC1)n1ccccc1=O (single isomer, unassigned; isomer 1) [Example 1a, (R or S) N-[2-(2-oxo-1,2-dihydropyridin-1-yl)-3-{[(CIS)-4-phenylcyclo-hexyl]oxy}propyl] methane-sulfonamide- Isomer 1]
4 | > 10000 nM | Cc1cccn(C(CNS(C)(=O)=O)CO[C@H]2CC[C@@H](c3ccccc3)CC2)c1=O (single isomer, unassigned; isomer 1) [Example 1d, (R or S) N-[2-(3-methyl-2-oxo-1,2-dihydropyridin-1-yl)-3-{[(CIS)-4-phenylcyclo-hexyl]oxy}propyl] methane-sulfonamide- Isomer 1]
5 | > 10000 nM | CCc1cccn(C(CNS(C)(=O)=O)CO[C@H]2CC[C@@H](c3ccccc3)CC2)c1=O (single isomer, unassigned; isomer 1) [Example 2a, (R or S) N-[2-(3-ethyl-2-oxo-1,2-dihydropyridin-1-yl)-3-{[(CIS)-4-phenylcyclohexyl]oxy}propyl]methanesulfonamide-Isomer 1]
6 | > 10000 nM | Cc1ccn(C(CNS(C)(=O)=O)CO[C@H]2CC[C@@H](c3ccccc3)CC2)n1 (single isomer, unassigned; isomer 1) [Example 2ab, (R or S) N-[2-(3-methyl-1H-pyrazol-1-yl)-3-{[(CIS)-4-phenylcyclohexyl]oxy}propyl]methanesulfonamide-Isomer 1]
7 | > 10000 nM | Cc1ccnn1C(CNS(C)(=O)=O)CO[C@H]1CC[C@@H](c2ccccc2)CC1 (single isomer, unassigned; isomer 1) [Example 2ad, (R or S) N-[2-(5-methyl-1H-pyrazol-1-yl)-3-{[(CIS)-4-phenylcyclohexyl]oxy}propyl]methanesulfonamide-Isomer 1]
8 | < 100 nM | Cc1cc(C)c(=O)n(C(CNS(C)(=O)=O)CO[C@H]2CC[C@@H](c3cccc(F)c3)CC2)c1 (single isomer, unassigned; isomer 1) [Example 2af, (R or S) N-[2-(3,5-dimethyl-2-oxo-1,2-dihydropyridin-1-yl)-3-{[(CIS)-4-(3-fluorophenyl)cyclohexyl]oxy}propyl]methanesulfonamide-Isomer 1]
9 | < 100 nM | Cc1cc(Cl)cn(C(CNS(C)(=O)=O)CO[C@H]2CC[C@@H](c3cccc(F)c3)CC2)c1=O (single isomer, unassigned; isomer 1) [Example 2ah, (R or S) N-[2-(5-chloro-3-methyl-2-oxo-1,2-dihydropyridin-1-yl)-3-{[(CIS)-4-(3-fluorophenyl)cyclohexyl]oxy}propyl]methanesulfonamide-Isomer 1]
10 | < 100 nM | Cc1cc(C)c(=O)n(C(CNS(=O)(=O)N(C)C)CO[C@H]2CC[C@@H](c3cccc(F)c3)CC2)c1 (single isomer, unassigned; isomer 1) [Example 2ar, (R or S) 1-[1-[(dimethylsulfamoyl)amino]-3-{[(CIS)-4-(3-fluorophenyl)cyclohexyl]oxy}propan-2-yl]-3,5-dimethyl-1,2-dihydropyridin-2-one-Isomer 1]
11 | < 100 nM | Cc1cc(C)c(=O)n(C(CNS(=O)(=O)CF)CO[C@H]2CC[C@@H](c3cccc(F)c3)CC2)c1 (single isomer, unassigned; isomer 1) [Example 2au, (R or S) N-[2-(3,5-dimethyl-2-oxo-1,2-dihydropyridin-1-yl)-3-{[(CIS)-4-(3-fluorophenyl)cyclohexyl]oxy}propyl]-1-fluoromethanesulfonamide-Isomer 1]
12 | 1000 to 10000 nM | Cc1cc(C)c(=O)n(C(CNS(C)(=O)=O)COC2CCN(c3ncc(F)cn3)CC2)c1 (single isomer, unassigned; isomer 1) [Example 2az, (R or S) N-[2-(3,5-dimethyl-2-oxo-1,2-dihydropyridin-1-yl)-3-{[1-(5-fluoropyrimidin-2-yl)piperidin-4-yl]oxy}propyl]methanesulfonamide-Isomer 1]
13 | 1000 to 10000 nM | CS(=O)(=O)NCC(CO[C@H]1CC[C@@H](c2ccccc2)CC1)n1cccc(F)c1=O (single isomer, unassigned; isomer 1) [Example 2g, (R or S) N-[2-(3-fluoro-2-oxo-1,2-dihydropyridin-1-yl)-3-{[(CIS)-4-phenylcyclohexyl]oxy}propyl]methanesulfonamide-Isomer 1]
14 | 100 to 1000 nM | Cc1ccc(=O)n(C(CNS(C)(=O)=O)CO[C@H]2CC[C@@H](c3ccccc3)CC2)c1 (single isomer, unassigned; isomer 1) [Example 2j, (R or S) N-[2-(5-methyl-2-oxo-1,2-dihydropyridin-1-yl)-3-{[(CIS)-4-phenylcyclohexyl]oxy}propyl]methanesulfonamide-Isomer 1]
15 | 100 to 1000 nM | Cc1ccn(C(CNS(C)(=O)=O)CO[C@H]2CC[C@@H](c3ccccc3)CC2)c(=O)c1C (single isomer, unassigned; isomer 1) [Example 2n, (R or S) N-[2-(3,4-dimethyl-2-oxo-1,2-dihydropyridin-1-yl)-3-{[(CIS)-4-phenylcyclohexyl]oxy}propyl]methanesulfonamide-Isomer 1]
16 | < 100 nM | Cc1cc(C)c(=O)n(C(CNS(C)(=O)=O)CO[C@H]2CC[C@@H](c3ccccc3)CC2)c1 (single isomer, unassigned; isomer 1) [Example 2t, (R or S) N-[2-(3,5-dimethyl-2-oxo-1,2-dihydropyridin-1-yl)-3-{[(CIS)-4-phenylcyclohexyl]oxy}propyl]methanesulfonamide-Isomer 1]
17 | 1000 to 10000 nM | Cc1cccn(C(CO[C@H]2CC[C@@H](c3ccccc3)CC2)C(C)NS(C)(=O)=O)c1=O (single isomer, unassigned; isomer 1) [Example 3a, (2R or 2S) and (3R or 3S) N-[3-(3-methyl-2-oxo-1,2-dihydropyridin-1-yl)-4-{[(CIS)-4-phenylcyclohexyl]oxy}butan-2-yl]methanesulfonamide—Isomer 1]
18 | 1000 to 10000 nM | Cn1cccc(C(CNS(C)(=O)=O)CO[C@H]2CC[C@@H](c3ccccc3)CC2)c1=O (single isomer, unassigned; isomer 1) [Example 4a, (R or S) N-[2-(1-methyl-2-oxo-1,2-dihydropyridin-3-yl)-3-{[(CIS)-4-phenylcyclohexyl]oxy}propyl]methanesulfonamide—Isomer 1]
19 | < 100 nM | Cc1cc(C(CNS(=O)(=O)N(C)C)CO[C@H]2CC[C@@H](c3cccc(F)c3)CC2)c(=O)n(C(F)F)c1 (single isomer, unassigned; isomer 1) [Example 5ab, (R or S) 1-(difluoromethyl)-3-[1-[(dimethylsulfamoyl)amino]-3-{[(CIS)-4-(3-fluorophenyl)cyclohexyl]oxy}propan-2-yl]-5-methyl-1,2-dihydropyridin-2-one—Isomer 1]
20 | < 100 nM | Cc1cc(C(CNS(C)(=O)=O)CO[C@H]2CC[C@@H](c3cccc(F)c3)CC2)c(=O)n(C)c1 (single isomer, unassigned; isomer 1) [Example 5c, (R or S) N-[2-(1,5-dimethyl-2-oxo-1,2-dihydropyridin-3-yl)-3-{[(CIS)-4-(3-fluorophenyl)cyclohexyl]oxy}propyl]methanesulfonamide—Isomer 1]
21 | < 100 nM | Cc1cc(C)[n+]([O-])c(C(CNS(C)(=O)=O)CO[C@H]2CC[C@@H](c3ccccc3)CC2)c1 (single isomer, unassigned; isomer 1) [Example 5k, (R or S) 2-[1-methanesulfonamido-3-{[(CIS)-4-phenylcyclohexyl]oxy}propan-2-yl]-4,6-dimethylpyridin-1-ium-1-olate—Isomer 1]
